Assay results published in publication PMC4850273 (mBio, 2016).

Target: T1, SGBP-A (Bacteroides ovatus, UniProt A7LXT5)
T1 sequence (A7LXT5 28-546): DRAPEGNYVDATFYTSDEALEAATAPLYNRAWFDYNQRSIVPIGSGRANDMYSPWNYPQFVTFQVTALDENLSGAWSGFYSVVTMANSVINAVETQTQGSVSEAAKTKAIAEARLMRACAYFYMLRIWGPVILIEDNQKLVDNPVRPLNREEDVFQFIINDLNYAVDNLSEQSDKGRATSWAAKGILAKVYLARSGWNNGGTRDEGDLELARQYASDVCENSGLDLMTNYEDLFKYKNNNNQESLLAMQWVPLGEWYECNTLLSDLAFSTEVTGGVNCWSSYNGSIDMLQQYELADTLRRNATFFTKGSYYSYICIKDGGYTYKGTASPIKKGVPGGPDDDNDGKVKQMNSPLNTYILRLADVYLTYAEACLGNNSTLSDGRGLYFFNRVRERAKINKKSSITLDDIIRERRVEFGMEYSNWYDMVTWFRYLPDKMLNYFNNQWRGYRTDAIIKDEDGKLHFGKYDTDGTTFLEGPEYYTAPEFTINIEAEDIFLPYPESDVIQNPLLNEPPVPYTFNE
Test: ITC
Format: binding
Details: 25 °C, 20 mM HEPES, 100 mM NaCl, pH 7.0; two titrations

- Ka (M^-1) / SGBP-A: 568.0 ± 291.0
Compound: OC[C@H]1O[C@@H](O[C@H]2[C@H](O)[C@@H](O)[C@H](O[C@H]3[C@H](O)[C@@H](O)[C@H](O[C@H]4[C@H](O)[C@@H](O)[C@H](O[C@H]5[C@H](O)[C@@H](O)[C@H](O[C@H]6[C@H](O)[C@@H](O)C(O)O[C@@H]6CO)O[C@@H]5CO)O[C@@H]4CO)O[C@@H]3CO)O[C@@H]2CO)[C@H](O)[C@@H](O)[C@@H]1O (stereo partly shown) [Cellohexaose]
